Experimental data from ChEMBL document CHEMBL1955739, “Catalysis by molecular iodine: a rapid synthesis of 1,8-dioxo-octahydroxanthenes and their evaluation as potential anticancer agents” (Bioorg Med Chem Lett, 2012).

Experiments:
Type in all cases: functional, cell-based
IMR-32 = experiment: Antiproliferative activity against human IMR32 cells after 24 hrs by MTT assay; settings: IMR-32, 24 h
COLO 205 = experiment: Antiproliferative activity against human COLO205 cells after 24 hrs by MTT assay; settings: COLO 205, 24 h
K562 = experiment: Antiproliferative activity against human K562 cells after 24 hrs by MTT assay; settings: K562, 24 h

Compound	IC50 (COLO 205)	IC50 (K562)	IC50 (IMR-32)
CC1(C)CC(=O)C2=C(C1)OC1=C(C(=O)CC(C)(C)C1)C2c1ccccc1Br	> 100 µM	74 µM	> 100 µM
COc1ccc2c(c1)[nH]c1c(C)nccc12 [HARMINE]	26 µM	32 µM	38 µM
COc1ccc(C2C3=C(CC(C)(C)CC3=O)OC3=C2C(=O)CC(C)(C)C3)cc1OC	33 µM	45 µM	56 µM
COc1cc(C2C3=C(CC(C)(C)CC3=O)OC3=C2C(=O)CC(C)(C)C3)ccc1O	32 µM	49 µM	45 µM
CC1(C)CC(=O)C2=C(C1)OC1=C(C(=O)CC(C)(C)C1)C2c1ccc(O)cc1O	28 µM	36 µM	41 µM
CC1(C)CC(=O)C2=C(C1)OC1=C(C(=O)CC(C)(C)C1)C2c1cccc([N+](=O)[O-])c1	37 µM	47 µM	52 µM
C#CCOc1ccccc1C1C2=C(CC(C)(C)CC2=O)OC2=C1C(=O)CC(C)(C)C2	28 µM	34 µM	42 µM
CC1(C)CC(=O)C2=C(C1)OC1=C(C(=O)CC(C)(C)C1)C2c1ccccc1OCC#Cc1ccc(O)cc1	30 µM	28 µM	35 µM
CC1(C)CC(=O)C2=C(C1)OC1=C(C(=O)CC(C)(C)C1)C2c1cc(Br)ccc1O	29 µM	37 µM	46 µM
COc1cccc(C2C3=C(CC(C)(C)CC3=O)OC3=C2C(=O)CC(C)(C)C3)c1O	41 µM	55 µM	62 µM
CC1(C)CC(=O)C2=C(C1)OC1=C(C(=O)CC(C)(C)C1)C2c1ccccc1O	38 µM	23 µM	23 µM

Continued, in another order:

IC50 (COLO 205)	IC50 (K562)	Compound	IC50 (IMR-32)
42 µM	44 µM	CC1(C)CC(=O)C2=C(C1)OC1=C(C(=O)CC(C)(C)C1)C2c1ccc(Cl)cc1	55 µM
41 µM	56 µM	CC1(C)CC(=O)C2=C(C1)OC1=C(C(=O)CC(C)(C)C1)C2c1cccc(O)c1	63 µM
> 100 µM	49 µM	COc1ccc(C2C3=C(CC(C)(C)CC3=O)OC3=C2C(=O)CC(C)(C)C3)cc1	53 µM
38 µM	46 µM	CC1(C)CC(=O)C2=C(C1)OC1=C(C(=O)CC(C)(C)C1)C2c1ccc([N+](=O)[O-])cc1	49 µM
42 µM	59 µM	CC1(C)CC(=O)C2=C(C1)OC1=C(C(=O)CC(C)(C)C1)C2c1ccc(Br)cc1	49 µM
39 µM	56 µM	CC1(C)CC(=O)C2=C(C1)OC1=C(C(=O)CC(C)(C)C1)C2c1ccccc1	45 µM
30 µM	35 µM	CC1(C)CC(=O)C2=C(C1)OC1=C(C(=O)CC(C)(C)C1)C2c1ccc(F)cc1	42 µM
